Results as given in patent US12637478B2, “Compound, preparation method thereof, and antibiotic composition comprising same” (priority 2020, dated 2026).
≈ marks a conversion by molar mass, not a printed value. Read-outs that look alike come from different tables or passages of the source.

Legend:
E. faecium^VRE = test: MIC by broth microdilution (aerobic pathogens), test strain 11; format: cell-based, Vancomycin resistant Enterococcus faecium; details: Enterococcus faecium; test strain 11, E. faecium^VRE (vancomycin resistant); read-out: MIC
Description: (§1) The antibacterial activity of the compounds of Examples 1 to 48 of the present invention against aerobic pathogens were evaluated by measuring the minimum concentration of the antibiotic capable of inhibiting bacterial growth by 90% compared to the growth of the non-drug treated control group. MIC was measured by the broth microdilution method based on CLSI standards [Reference: Clinical and Laboratory Standards Institute Document. (2000) Methods for Dilution Antimicrobial Susceptibility Test for Bacteria that Grow Aerobically-Fifth Edition: M7-A5. CLSI, Villanova, PA].
(§2) All 13 strains such as methicillin susceptible Staphylococcus aureus (MSSA), methicillin resistant Staphylococcus aureus (MRSA), Vancomycin resistant Staphylococcus aureus (VRSA), Staphylococcus epidermidis, methicillin resistant Staphylococcus epidermidis, Enterococcus faecalis, Vancomycin resistant Enterococcus faecalis, Enterococcus faecium, Vancomycin resistant Enterococcus faecium were used.

E. faecium^LinR = test: MIC by broth microdilution (aerobic pathogens), test strain 12; format: cell-based, Linezolid resistant Enterococcus faecium; details: Enterococcus faecium; test strain 12, E. faecium^LinR (linezolid resistant); read-out: MIC
Description: as §1, §2

S. epidermis = test: MIC by broth microdilution (aerobic pathogens), test strain 5; format: cell-based; details: Staphylococcus epidermidis
Description: as §1, §2

E. faecium = test: MIC by broth microdilution (aerobic pathogens), test strain 10; format: cell-based; details: Enterococcus faecium; test strain 10, E. faecium; read-out: MIC
Description: as §1, §2

S. epidermis^MR = test: MIC by broth microdilution (aerobic pathogens), test strain 6; format: cell-based, Methicillin resistant Staphylococcus epidermidis; details: Staphylococcus epidermidis
Description: as §1, §2

S. aureus^MS [1] = test: MIC by broth microdilution (aerobic pathogens), test strain 1; format: cell-based; details: Staphylococcus aureus
Description: as §1, §2

S. aureus^MS [2] = test: MIC by broth microdilution (aerobic pathogens), test strain 2; format: cell-based; details: Staphylococcus aureus
Description: as §1, §2

E. faecalis^VanA = test: MIC by broth microdilution (aerobic pathogens), test strain 8; format: cell-based, Vancomycin resistant Enterococcus faecalis; details: Enterococcus faecalis; test strain 8, E. faecalis^VanA (vancomycin resistant); read-out: MIC
Description: as §1, §2

S. aureus^VR = test: MIC by broth microdilution (aerobic pathogens), test strain 4; format: cell-based, Vancomycin resistant Staphylococcus aureus; details: Staphylococcus aureus; test strain 4, S. aureus^VR (vancomycin resistant); read-out: MIC
Description: as §1, §2

C. difficile 9689 = test: MIC by agar dilution against Clostridioides difficile, test strain 13; format: cell-based
C. difficile 159 = test: MIC by agar dilution against Clostridioides difficile, test strain 15; format: cell-based
C. difficile 181 = test: MIC by agar dilution against Clostridioides difficile, test strain 19; format: cell-based; details: test strain 19, C. difficile 181, anaerobic, agar dilution, read-out: MIC
C. difficile 152 = test: MIC by agar dilution against Clostridioides difficile, test strain 14; format: cell-based
C. difficile 173 = test: MIC by agar dilution against Clostridioides difficile, test strain 17; format: cell-based
C. difficile 174 = test: MIC by agar dilution against Clostridioides difficile, test strain 18; format: cell-based
C. difficile 161 = test: MIC by agar dilution against Clostridioides difficile, test strain 16; format: cell-based; details: test strain 16, C. difficile 161, anaerobic, agar dilution, read-out: MIC
S. aureus^MR = test: MIC by broth microdilution (aerobic pathogens), test strain 3; format: cell-based, Methicillin resistant Staphylococcus aureus; details: Staphylococcus aureus; test strain 3, S. aureus^MR (methicillin resistant); read-out: MIC
Description: as §1, §2

E. faecalis^LinR = test: MIC by broth microdilution (aerobic pathogens), test strain 9; format: cell-based, Linezolid resistant Enterococcus faecalis; details: Enterococcus faecalis
Description: as §1, §2

E. faecalis = test: MIC by broth microdilution (aerobic pathogens), test strain 7; format: cell-based; details: Enterococcus faecalis; test strain 7, E. faecalis; read-out: MIC
Description: as §1, §2

M. abscessus = test: MIC by resazurin (REMA) assay against Mycobacterium, test strain 23; format: cell-based; details: Mycobacteroides abscessus
Description: In order to test the antibacterial activity, the medium of Mycobacterium cultured to late log phase was diluted so as to be 4.0×10^5 cells/well in Middlebrook 7H10 agar medium (Difco) supplemented with 10% oleic acid, albumin, dextrose, catalase (OADC, Becton Dickinson) and 0.05% Tween 80 (Sigma Aldrich) and was dispensed into a 96-well plate. The compounds were treated so that DMSO was 1%, and after 3 days, a 0.025% resazurin (REMA) solution was dispensed, and the growth of the bacteria was confirmed after culturing. The MIC value was measured for the antibacterial activity through resazurin (excitation 530 nm, emission 590 nm).

[3] = test strain 5, S. epidermis, read-out: MIC
[4] = test strain 6, S. epidermis^MR (methicillin resistant), read-out: MIC
[5] = test strain 1, S. aureus^MS, read-out: MIC
[6] = test strain 2, S. aureus^MS, read-out: MIC
[7] = test strain 13, C. difficile 9689, anaerobic, agar dilution, read-out: MIC
[8] = test strain 15, C. difficile 159, anaerobic, agar dilution, read-out: MIC
[9] = test strain 14, C. difficile 152, anaerobic, agar dilution, read-out: MIC
[10] = test strain 17, C. difficile 173, anaerobic, agar dilution, read-out: MIC
[11] = test strain 18, C. difficile 174, anaerobic, agar dilution, read-out: MIC
[12] = test strain 9, E. faecalis^LinR (linezolid resistant), read-out: MIC

| Structure (SMILES) | MIC (E. faecium^VRE) [µg/mL] | MIC (E. faecium^LinR) [µg/mL] | MIC (S. epidermis; [3]) [µg/mL] | MIC (E. faecium) [µg/mL] | MIC (S. epidermis^MR; [4]) [µg/mL] | MIC (S. aureus^MS [1]; [5]) [µg/mL] | MIC (S. aureus^MS [2]; [6]) [µg/mL] | MIC (E. faecalis^VanA) [µg/mL] | MIC (S. aureus^VR) [µg/mL] | MIC (C. difficile 9689; [7]) [µg/mL] | MIC (C. difficile 159; [8]) [µg/mL] | MIC (C. difficile 181) [µg/mL] | MIC (C. difficile 152; [9]) [µg/mL] | MIC (C. difficile 173; [10]) [µg/mL] | MIC (C. difficile 174; [11]) [µg/mL] | MIC (C. difficile 161) [µg/mL] | MIC (S. aureus^MR) [µg/mL] | MIC (E. faecalis^LinR; [12]) [µg/mL] | MIC (E. faecalis) [µg/mL] | further results |
| --- | --- | --- | --- | --- | --- | --- | --- | --- | --- | --- | --- | --- | --- | --- | --- | --- | --- | --- | --- | --- |
| C/C=C1\NC(=O)[C@H]([C@@H](C)O)NC(=O)c2csc(n2)-c2ccc(-c3nc(-c4nc(C(=O)NC5(C(=O)NCCn6cnc([N+](=O)[O-])n6)CC5)cs4)cs3)nc2-c2csc(n2)[C@H]([C@@H](C)O)NC(=O)c2csc(n2)[C@H](C(C)C)NC(=O)c2csc1n2 [Compound 38] | 1 (≈ 0.815 µM) | 1 (≈ 0.815 µM) | 1 (≈ 0.815 µM) | 0.5 (≈ 0.408 µM) | 1 (≈ 0.815 µM) | 1 (≈ 0.815 µM) | 1 (≈ 0.815 µM) | 1 (≈ 0.815 µM) | 1 (≈ 0.815 µM) |  |  |  |  |  |  |  |  |  |  |  |
| C/C=C1\NC(=O)[C@H]([C@@H](C)O)NC(=O)c2csc(n2)-c2ccc(-c3nc(-c4nc(C(=O)NC5(C(=O)NCCCB(O)O)CC5)cs4)cs3)nc2-c2csc(n2)[C@H]([C@@H](C)O)NC(=O)c2csc(n2)[C@H](C(C)C)NC(=O)c2csc1n2 [Compound 10] |  | 0.5 (≈ 0.427 µM) | 0.0625 (≈ 0.0533 µM) | 0.25 (≈ 0.213 µM) | 0.125 (≈ 0.107 µM) | 0.125 (≈ 0.107 µM) | 0.0625 (≈ 0.0533 µM) | 0.25 (≈ 0.213 µM) | 0.5 (≈ 0.427 µM) | 0.5 (≈ 0.427 µM) | 0.25 (≈ 0.213 µM) | 0.25 (≈ 0.213 µM) | 0.06 (≈ 0.0512 µM) | 0.06 (≈ 0.0512 µM) | 0.06 (≈ 0.0512 µM) | 0.125 (≈ 0.107 µM) | 0.5 (≈ 0.427 µM) | 0.125 (≈ 0.107 µM) | 0.25 (≈ 0.213 µM) |  |
| C/C=C1\NC(=O)[C@H]([C@@H](C)O)NC(=O)c2csc(n2)-c2ccc(-c3nc(-c4nc(C(=O)NC5(C(=O)NCCCCB(O)O)CC5)cs4)cs3)nc2-c2csc(n2)[C@H]([C@@H](C)O)NC(=O)c2csc(n2)[C@H](C(C)C)NC(=O)c2csc1n2 [Compound 20] | 1 (≈ 0.843 µM) | 1 (≈ 0.843 µM) | 0.5 (≈ 0.421 µM) | 0.5 (≈ 0.421 µM) | 0.5 (≈ 0.421 µM) | 0.25 (≈ 0.211 µM) | 0.125 (≈ 0.105 µM) |  |  | 0.25 (≈ 0.211 µM) | 0.5 (≈ 0.421 µM) | 1 (≈ 0.843 µM) | 0.25 (≈ 0.211 µM) | 0.5 (≈ 0.421 µM) | 0.25 (≈ 0.211 µM) | 1 (≈ 0.843 µM) |  | 0.25 (≈ 0.211 µM) | 0.5 (≈ 0.421 µM) |  |
| C/C=C1\NC(=O)[C@H]([C@@H](C)O)NC(=O)c2csc(n2)-c2ccc(-c3nc(-c4nc(C(=O)NC5(C(=O)NN6CC(=O)NC6=O)CC5)cs4)cs3)nc2-c2csc(n2)[C@H]([C@@H](C)O)NC(=O)c2csc(n2)[C@H](C(C)C)NC(=O)c2csc1n2 [Compound 23] |  |  |  |  |  |  |  |  |  |  |  |  |  |  |  |  |  |  |  | MIC (C. difficile 9689; 9689): 0.25 µg/mL (≈ 0.211 µM); MIC (M. abscessus): 0.226 µg/mL (≈ 0.191 µM); MIC (C. difficile 159; 159): 0.5 µg/mL (≈ 0.422 µM); MIC (C. difficile 152; 152): 0.25 µg/mL (≈ 0.211 µM); MIC (S. epidermis): 1 µg/mL (≈ 0.844 µM); MIC (C. difficile 173; 173): 1 µg/mL (≈ 0.844 µM); MIC (C. difficile 174; 174): 0.125 µg/mL (≈ 0.106 µM); MIC (S. epidermis^MR): 1 µg/mL (≈ 0.844 µM); MIC (S. aureus^MS [1]): 0.5 µg/mL (≈ 0.422 µM); MIC (S. aureus^MS [2]): 0.5 µg/mL (≈ 0.422 µM); MIC (E. faecalis^LinR): 1 µg/mL (≈ 0.844 µM) |
| C/C=C(\NC(=O)c1csc(-c2csc(-c3ccc4c(n3)-c3csc(n3)[C@H]([C@@H](C)O)NC(=O)c3csc(n3)[C@H](C(C)C)NC(=O)c3csc(n3)/C(=C/C)NC(=O)[C@H]([C@@H](C)O)NC(=O)c3csc-4n3)n2)n1)C(=O)NCCN1CCN(C(C)C)CC1 [Compound 47] | 1 (≈ 0.806 µM) | 1 (≈ 0.806 µM) | 0.5 (≈ 0.403 µM) | 0.5 (≈ 0.403 µM) | 0.5 (≈ 0.403 µM) | 0.5 (≈ 0.403 µM) | 0.5 (≈ 0.403 µM) | 0.5 (≈ 0.403 µM) | 1 (≈ 0.806 µM) |  |  |  |  |  |  |  | 1 (≈ 0.806 µM) | 1 (≈ 0.806 µM) | 0.5 (≈ 0.403 µM) |  |
| C/C=C(\NC(=O)c1csc(-c2csc(-c3ccc4c(n3)-c3csc(n3)[C@H]([C@@H](C)O)NC(=O)c3csc(n3)[C@H](C(C)C)NC(=O)c3csc(n3)/C(=C/C)NC(=O)[C@H]([C@@H](C)O)NC(=O)c3csc-4n3)n2)n1)C(=O)NCCN1CCN(C)CC1 [Compound 46] | 0.5 (≈ 0.412 µM) | 0.5 (≈ 0.412 µM) | 0.25 (≈ 0.206 µM) | 0.25 (≈ 0.206 µM) | 0.25 (≈ 0.206 µM) | 0.5 (≈ 0.412 µM) | 0.5 (≈ 0.412 µM) | 0.5 (≈ 0.412 µM) | 0.5 (≈ 0.412 µM) |  |  |  |  |  |  |  | 1 (≈ 0.825 µM) | 0.25 (≈ 0.206 µM) | 0.5 (≈ 0.412 µM) |  |
